pEC50: −log10 of the molar value.
Tests used:
[1] = Cytotoxicity against African green monkey Vero cells assessed as reduction in cell viability after 72 hrs by XTT assay; assay type: cell-based; settings: chlorocebus sabaeus
[2] = Selectivity index, ratio of CC50 for African green monkey Vero cells to EC50 for Zika virus infected in African green monkey Vero cells; assay type: toxicity; settings: read-out: Ratio CC50/EC50
Zika virus [3] = experiment: Antiviral activity against Zika virus infected in African green monkey Vero cells assessed as inhibition of viral RNA replication after 24 hrs by RT-PCR method; assay type: functional
Zika virus [4] = experiment: Antiviral activity against Zika virus infected in African green monkey Vero cells assessed as inhibition of viral RNA replication at 10 uM after 24 hrs by RT-PCR method relative to control; assay type: functional
Zika virus [5] = experiment: Potency index, ratio of chloroquine EC50 to test compound EC50 for Zika virus infected in African green monkey Vero cells; assay type: functional
Zika virus [6] = experiment: Potency index, ratio of mefloquine EC50 to test compound EC50 for Zika virus infected in African green monkey Vero cells; assay type: functional
Vero = experiment: Cytotoxicity against African green monkey Vero cells assessed as reduction in cell viability at 10 uM after 72 hrs by XTT assay relative to control; assay type: cell-based; settings: chlorocebus sabaeus

Structure (SMILES) | CC50 at 72 h [1] | selectivity ratio [2] | pEC50 (Zika virus [3]) | inhibition at 10 µM (Zika virus [4]) | Ratio EC50 (Zika virus [5]) | Ratio EC50 (Zika virus [6]) | Activity (Vero)
O[C@@H](c1cc(C(F)(F)F)nc2c(C(F)(F)F)cccc12)[C@H]1CCCCN1 [(S,R)-MEFLOQUINE] | 212 µM | 58 | 5.44 | 78.8% | 3 |  | 
CCN(CC)CCCC(C)Nc1ccnc2cc(Cl)ccc12 (stereo not given) [CHLOROQUINE] | 412 µM |  | 4.92 |  |  |  | 
NCCNc1cc(C(F)(F)F)nc2c(C(F)(F)F)cccc12 | 195 µM | 243 | 6.10 | 78.6% |  | 5 | 
OCCNc1cc(C(F)(F)F)nc2c(C(F)(F)F)cccc12 | 189 µM | 236 | 6.10 | 74.4% |  | 5 | 
COc1cc(C(F)(F)F)nc2c(C(F)(F)F)cccc12 |  |  |  | 12% |  |  | 
CCCCNc1cc(C(F)(F)F)nc2c(C(F)(F)F)cccc12 |  |  |  | 58.8% |  |  | 
NCCCNc1cc(C(F)(F)F)nc2c(C(F)(F)F)cccc12 | 287 µM | 143 | 5.70 | 79.9% |  | 2 | 
NCCCCCCCCCCNc1cc(C(F)(F)F)nc2c(C(F)(F)F)cccc12 |  |  |  |  |  |  | > 80%
FC(F)(F)c1cc(NCCCl)c2cccc(C(F)(F)F)c2n1 | 316 µM | 225 | 5.85 | 86.9% |  | 3 | 
